Assays:
PLCδ1/PH domain = target: T1, PLCδ1/PH domain (Homo sapiens, UniProt P51178); conditions: Lemmon & Ferguson (2001), read-out: affinity for IP3; cited from earlier work
T1 sequence (P51178 21-130 limits assumed): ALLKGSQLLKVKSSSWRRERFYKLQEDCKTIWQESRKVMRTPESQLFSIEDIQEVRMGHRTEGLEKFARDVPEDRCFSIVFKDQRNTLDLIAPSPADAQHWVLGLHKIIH

CHOM1 cells = assay: Cellular assay: IP3 levels in CHOM1 cells after carbachol, measured by scintillation proximity assay; format: cell-based; conditions: 20 mM LiCl, Carbachol 0.01 mM to 100 mM, 1 minute, FIG. 3
Protocol: Standard curves were generated, by displacing labelled IP3, using a range of known concentrations of unlabelled IP3. Reactions were conducted in 96 well Corning NBS microplates in a total volume of […]. The assays were carried out using 10 mMTris/[…] pH 7.0 containing 400 ng of the biotinylated GST-tagged PLC, protein, 10 nCi [^3H] IP3 (spec activity 23.0 Ci/mmol, Amersham), and 1 mg of streptavidin coated PVT beads. Plates were incubated on ice for 2 hours and the plates then read using a Microbeta microplate scintillation counter. Standard curves were also run in the presence of dodecyl trimethyl ammonium bromide (DTAB; lysis reagent 1) and alpha-cyclodextrin (lysis reagent 2) at final concentrations of 0.3% lysis solution 1 and 2% lysis reagent 2 (FIG. 2).
Cells (CHOM1; 2×10^5) were seeded onto a 24 well tissue culture plate and grown overnight at 37° C., 95/5% (air/CO2). Following overnight incubation, media were aspirated and the cells were washed 1× with PBS (phosphate buffered saline). Fresh media were added containing 20 mM LiCl (final concentration of lithium chloride) and the cells were incubated for 30 minutes at 37° C. in a humidified atmosphere (95/5%, air/CO2). […] The plate was incubated on ice for approximately 16 hours and the plate counted using a Microbeta microplate scintillation counter at 1 minute/well.

O=P(O)(O)O[C@@H]1[C@H](O)[C@H](O)[C@@H](OP(=O)(O)O)[C@H](OP(=O)(O)O)[C@H]1O [IP3, Inositol 1,4,5-trisphosphate]
Kd (PLCδ1/PH domain): 200 nM

C[N+](C)(C)CCOC(N)=O [carbachol, Carbachol]
effect on cellular levels of IP3 (CHOM1 cells): stimulatory effect

Reference: US20040253656A1, “Method for measuring inositol triphosphate” (priority 2003, published 2004)
